Measured values taken from patent US9597407B2, “Targeted antimicrobial moieties” (C3 Jian, Inc., priority 2009, dated 2017).
Entries after “also recorded” stand apart in the source; their conditions may differ.

B1: PF-745 (peptide)
chain 1: ANSQNSLFSNRSSFKSIFDKKSNITTNATTPNSNIIIN
chain 2: B1 chain 1
modifications: Peptide with targeting and/or antimicrobial activity
B2: PF-761 (peptide)
chain 1: SKFELVNYASGCSCGADCKCASETECKCASKK
chain 2: B2 chain 1
modifications: Peptide with targeting and/or antimicrobial activity
B3: PF-763 (peptide)
chain 1: GIWMARNYFHRSSIRKVYVESDKEYERVHPMQKIQYEGNYKSQ
chain 2: B3 chain 1
modifications: Peptide with targeting and/or antimicrobial activity
B4: PF-749 (peptide)
chain 1: GVNKWWEEHNKAKLWKNVKGKFLEGEGEEEDDE
chain 2: B4 chain 1
modifications: Peptide with targeting and/or antimicrobial activity

What was measured:
microorganisms [1] = assay: Peptide activities: binding, antimicrobial, growth or phenotype altering (Table 8)
Source text: In certain embodiments, peptides described herein can have multiple activities. Thus for example, a peptide can have both binding/targeting activity and antimicrobial activity. Such peptides can be used, e.g., in a chimeric construct, for any or all of these properties. Thus, for example, a peptide designated “B” in Table 8 can be used as a targeting peptide. If it is also designated G or M it can also be used for antimicrobial activity.

microorganisms [2] = assay: Morphology, biofilm and growth disruption by peptides (Table 5); assay type: cell-based; parameters: key: A: Peptide aggregates; B: Less hyphal formation; Clumps; Diffuse clumps and small polyps; F: Diffuse growth; H: Thin; I: Growth inhibition; Microcolony formation; Rippled; Small polyps; Thick; W: Halo formation on top, microlonies on bottom
Source text: In certain embodiments peptides that induce alterations in phenotype or other biological activities can also be used as antimicrobial effector moieties.

bacteria = assay: Binding of targeting peptides to microorganisms (Table 3); conditions: preferably 1x PBS; for Target(s) (microorganism bound by the targeting peptide) / Target(s) (microorganisms bound by the targeting peptide): peptide binding in aqueous buffers that varied depending on peptide solubility
[3] = microorganism the targeting peptide binds, binding in aqueous buffers that varied with peptide solubility

| Molecule | Activities (microorganisms [1]) | Organism, effect (morphology, biofilm and growth disruption) (microorganisms [2]; M. luteus) | Organism, effect (morphology, biofilm and growth disruption) (microorganisms [2]; MRSA) | Organism, effect (morphology, biofilm and growth disruption) (microorganisms [2]; S. epidermidis) | Organism, effect (morphology, biofilm and growth disruption) (microorganisms [2]; S. mutans) | Organism, effect (morphology, biofilm and growth disruption) (microorganisms [2]; S. pneumoniae) | Target(s) (microorganism bound by the targeting peptide) (bacteria) | Target(s) (microorganisms bound by the targeting peptide) (bacteria) | Organism, effect (microorganisms [2]; MRSA) | further results |
| --- | --- | --- | --- | --- | --- | --- | --- | --- | --- | --- |
| PF-746 (chain 1 FLGNSQYFTRK; chain 2 FLGNSQYFTRK; Peptide with targeting and/or antimicrobial activity) | G B | M. luteus (C) | MRSA (C) | S. epidermidis (C) | S. mutans (D) | S. pneumoniae (C) | S. epidermidis; also recorded: M. luteus; also recorded: E. coli; also recorded: C. albicans; also recorded: S. pneumoniae; also recorded: E. faecalis; also recorded: C. jeikeium |  |  | Organism, effect (morphology, biofilm and growth disruption) (microorganisms [2]; E. coli): E. coli (C); Organism, effect (morphology, biofilm and growth disruption) (microorganisms [2]; P. aeruginosa): P. aeruginosa (A) |
| PF-514 (QRFYKLFYHIDLTNEQALKLFQVK; Peptide with targeting and/or antimicrobial activity) | G B |  |  | S. epidermidis (C) |  | S. pneumoniae (M) |  | S. epidermidis and E. coli and P. aeruginosa and C. albicans and MRSA and S. pneumoniae and E. faecalis and C. jeikeium |  | Organism, effect (morphology, biofilm and growth disruption) (microorganisms [2]; E. coli): E. coli (R); Organism, effect (morphology, biofilm and growth disruption) (microorganisms [2]; E. faecalis): E. faecalis (C) |
| PF-394 (VLKEECYQKN; Peptide with targeting and/or antimicrobial activity) | G B |  |  |  |  |  |  | S. epidermidis and MRSA and C. jejuni | MRSA (C) | Organism, effect (microorganisms [2]; E. faecalis): E. faecalis (A) |
| PF-021 (FSLNFSKQKYVTVN; Peptide with targeting and/or antimicrobial activity) | G B |  |  |  |  |  |  |  | MRSA (R) | Organism, effect (microorganisms [2]; C. jeikeium): C. jeikeium (R); Organism, effect (microorganisms [2]; M. luteus): M. luteus (A); Organism, effect (microorganisms [2]; S. epidermidis): S. epidermidis (A); Target(s) (bacteria; [3]): S. epidermidis; also recorded: M. luteus; also recorded: P. mirabilis; also recorded: E. coli; also recorded: C. albicans; also recorded: E. faecalis; also recorded: C. jeikeium |
| PF-382 (KYKCSWCKRVYTLRKDHKTAR; Peptide with targeting and/or antimicrobial activity) | G B |  |  |  |  |  |  |  | MRSA (M) | Target(s) (bacteria; microorganism bound by the targeting peptide, binding in aqueous buffers chosen by peptide solubility): S. epidermidis; also recorded: B. subtilis; also recorded: B. fragilis; also recorded: E. coli; also recorded: P. aeruginosa; also recorded: E. faecalis; also recorded: C. jeikeium; also recorded: C. jejuni |
| PF-467 (YYKDYFKEI; Peptide with targeting and/or antimicrobial activity) | G B |  |  |  |  | S. pneumoniae (H) |  | MRSA and E. faecalis and C. jeikeium and C. jejuni |  |  |
| PF-470 (PYSDSYATRPHWEQHRAR; Peptide with targeting and/or antimicrobial activity) | G B |  |  |  |  |  |  | M. luteus and E. coli and MRSA and E. faecalis and C. jeikeium and C. jejuni |  | Organism, effect (morphology, biofilm and growth disruption) (microorganisms [2]; C. jejuni): C. jejuni (A); Organism, effect (morphology, biofilm and growth disruption) (microorganisms [2]; E. faecalis): E. faecalis (A) |
| PF-C098 (PETKGKVSAFVFGIVVANVIAVVYILYMLREIGIIQ; Peptide with targeting and/or antimicrobial activity) | G B |  |  |  | S. mutans (F) |  | A. naeslundii; also recorded: F. nucleatum; also recorded: P. gingivalis; also recorded: S. mutans; also recorded: T. denticola |  |  | Organism, effect (morphology, biofilm and growth disruption) (microorganisms [2]; F. nucleatum): F. nucleatum (T) |
| PF-064 (DYYGKE; Peptide with targeting and/or antimicrobial activity) | G B |  |  |  |  |  |  |  | MRSA (M) | Organism, effect (microorganisms [2]; S. epidermidis): S. epidermidis (D); Target(s) (bacteria; [3]): E. coli |
| B1 | G B | M. luteus (C) | MRSA (C) |  | S. mutans (D) | S. pneumoniae (C) | S. epidermidis; also recorded: M. luteus; also recorded: C. albicans |  |  |  |
| B2 | G B | M. luteus (C) | MRSA (D) | S. epidermidis (C) | S. mutans (D) | S. pneumoniae (C) | S. epidermidis and M. luteus and P. mirabilis and P. aeruginosa and C. albicans and MRSA and S. pneumoniae and E. faecalis |  |  | Organism, effect (morphology, biofilm and growth disruption) (microorganisms [2]; E. coli): E. coli (C); Organism, effect (morphology, biofilm and growth disruption) (microorganisms [2]; P. aeruginosa): P. aeruginosa (C) |
| B3 | G B | M. luteus (C) | MRSA (D) | S. epidermidis (M) |  | S. pneumoniae (C) | S. epidermidis and M. luteus and E. coli and C. albicans and MRSA and S. pneumoniae and E. faecalis |  |  |  |
| B4 | G B |  |  |  |  | S. pneumoniae (H) | S. epidermidis; also recorded: M. luteus; also recorded: E. coli; also recorded: P. aeruginosa; also recorded: C. albicans; also recorded: S. pneumoniae; also recorded: C. jeikeium |  |  |  |
